Assay [1] addresses T1, human glucocorticoid receptor (Homo sapiens, UniProt P04150).
T1 construct: purified human recombinant full-length glucocorticoid receptor (2 nM); purchased Invitrogen Part #2893
T1 sequence (P04150 1-777): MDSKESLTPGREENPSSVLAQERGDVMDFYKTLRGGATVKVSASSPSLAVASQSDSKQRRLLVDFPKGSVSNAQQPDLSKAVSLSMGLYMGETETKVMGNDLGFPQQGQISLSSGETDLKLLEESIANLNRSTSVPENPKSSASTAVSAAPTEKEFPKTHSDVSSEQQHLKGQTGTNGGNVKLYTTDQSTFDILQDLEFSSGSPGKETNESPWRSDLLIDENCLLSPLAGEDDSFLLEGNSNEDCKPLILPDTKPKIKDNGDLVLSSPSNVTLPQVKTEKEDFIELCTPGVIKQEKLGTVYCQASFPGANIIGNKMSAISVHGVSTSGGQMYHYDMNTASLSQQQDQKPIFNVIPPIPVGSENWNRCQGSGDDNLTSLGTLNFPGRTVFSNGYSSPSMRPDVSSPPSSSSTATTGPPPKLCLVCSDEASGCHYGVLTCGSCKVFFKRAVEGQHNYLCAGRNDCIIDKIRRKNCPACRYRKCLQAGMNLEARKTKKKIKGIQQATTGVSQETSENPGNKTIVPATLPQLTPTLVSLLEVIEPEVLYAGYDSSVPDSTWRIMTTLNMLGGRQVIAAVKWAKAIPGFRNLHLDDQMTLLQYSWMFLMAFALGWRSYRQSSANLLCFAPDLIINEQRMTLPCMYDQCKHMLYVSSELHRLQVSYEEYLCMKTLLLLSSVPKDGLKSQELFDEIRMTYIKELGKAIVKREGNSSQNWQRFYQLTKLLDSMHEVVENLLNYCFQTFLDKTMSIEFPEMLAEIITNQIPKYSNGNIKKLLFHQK
Description: Glucocorticoid Receptor Binding Assay (I), fluorescence polarization competitor kit (Fluormone GS Red). As to conditions: purified human recombinant full-length GR 2 nM, 1 nM Fluormone GS Red, FP; read-out: GR (Ki, nM) (GR Binding Assay (I)). Here is the method: Briefly, purified human recombinant full-length glucocorticoid receptor (2 nM) was mixed with fluorescently labeled glucocorticoid (1 nM Fluormone GS Red) in the presence or absence of test compound. After two hour incubation at room temperature in the dark, the fluorescence polarization (FP) of the samples was measured. […] Test compounds were analyzed in the concentration range from 8.5E-05 μM to 5 μM.
Background: In fluorescence polarisation assays a small probe gives low polarisation when free and higher when bound to something large.

Assay [2] has as its system AP-1 induced transcriptional activity. Description: Cellular Transrepressional Assay (AP-1 luciferase reporter in A549 cells, PMA-activated). The assay is classed as cell-based. As to conditions: Homo sapiens, A549, 7 h, A549 cells with 7x AP-1 luciferase reporter, 10 ng/ml PMA, read-out: AP-1 (EC50, nM) (Cellular Transrepression Assay). Here is the method:
To measure the ability of test molecules to inhibit AP-1 induced transcriptional activity an A549 cell was utilized which was stably transfected with a plasmid containing 7× AP-1 DNA binding sites (pAP-1-Luc plasmid, Stratagene Co. La Jolla, Calif.) followed by the gene for luciferase. Cells were activated with 10 ng/ml of […] (PMA) plus or minus test molecules for 7 hours. After 7 hours a luciferase reagent was added to measure luciferase enzymatic activity in the cell. After a 10 minute incubation of luciferase reagent with cells, luminescence was measured in a TopCount luminescence counter. Repression of AP-1 activity was calculated as the percentage decrease in the signal induced by PMA alone. Test molecules were analyzed in the concentration range from 0.1 nM to 40 μM. EC50s were determined by using standard curve fitting methods such as Excel fit (Microsoft Co.).
(A reporter such as luciferase makes a cellular process visible.)

Consider `COCCCn1ncc2cc(C(c3ccccc3)C(C)(C)C(=O)Nc3nncs3)ccc21` (centres unmarked) [Example 71], for which the Ki (usually the equilibrium dissociation constant of an inhibitor or competing ligand from its target) in assay [1] came out at 28 nM. In addition, in assay [2], the EC50 (commonly the midpoint of the concentration-response curve) was more than 10000 nM.
For `CC(C)(C(=O)Nc1nncs1)C(c1ccccc1)c1ccc2c(cnn2Cc2ccccc2)c1` (centres unmarked) [Example 72, 3-(1-benzyl-1H-indazol-5-yl)-2,2-dimethyl-3-phenyl-N-(1,3,4-thiadiazol-2-yl)propanamide] the same measures were 14 nM and 1930 nM.
For the compound `CC(C)(C(=O)Nc1nncs1)C(c1ccccc1)c1ccc2nn(Cc3ccccc3)cc2c1` (centres unmarked) [Example 73, 3-(2-benzyl-2H-indazol-5-yl)-2,2-dimethyl-3-phenyl-N-(1,3,4-thiadiazol-2-yl)propanamide], the Ki in assay [1] was 46 nM. The EC50 in assay [2] was more than 10000 nM.
With `CC(C)(C(=O)Nc1nncs1)C(c1ccccc1)c1ccc2c(cnn2CCc2ccccc2)c1` (centres unmarked) [Example 74, 2,2-dimethyl-3-(1-phenethyl-1H-indazol-5-yl)-3-phenyl-N-(1,3,4-thiadiazol-2-yl)propanamide], the Ki in assay [1] is 152 nM. Further, in assay [2], the EC50 was more than 10000 nM.
For `CC(C)(C(=O)Nc1nncs1)C(c1ccccc1)c1ccc2c(cnn2CCCO)c1` (centres unmarked) [Example 75, 3-(1-(3-hydroxypropyl)-1H-indazol-5-yl)-2,2-dimethyl-3-phenyl-N-(1,3,4-thiadiazol-2-yl)propanamide], in assay [1], the Ki was 17 nM. The EC50 in assay [2] came to 1020 nM.
`CC(C)(C(=O)Nc1nncs1)C(c1ccccc1)c1ccc2c(cnn2CCCCO)c1` (centres unmarked) [Example 76, 3-(1-(4-hydroxybutyl)-1H-indazol-5-yl)-2,2-dimethyl-3-phenyl-N-(1,3,4-thiadiazol-2-yl)propanamide]: the Ki in assay [1] turned out to be 9.3 nM. Besides, the EC50 in assay [2] is 267 nM.
For `CC(C)(C(=O)Nc1nncs1)C(c1ccccc1)c1ccc2nn(CCCCO)cc2c1` (centres unmarked) [Example 77, 3-(2-(4-hydroxybutyl)-2H-indazol-5-yl)-2,2-dimethyl-3-phenyl-N-(1,3,4-thiadiazol-2-yl)propanamide] the same measures were 23 nM and 951 nM.
Regarding `CC(C)(C(=O)Nc1nccs1)C(c1ccccc1)c1ccc2c(cnn2-c2ccccn2)c1` (centres unmarked) [Example 79, 2,2-dimethyl-3-phenyl-3-(1-(pyridin-2-yl)-1H-indazol-5-yl)-N-(thiazol-2-yl)propanamide], the Ki in assay [1] turned out to be 10 nM. Besides, in assay [2], the EC50 came out at 2480 nM.
For `CC(C)(C(=O)Nc1nncs1)C(c1ccccc1)c1ccc2c(cnn2-c2ccccn2)c1` (centres unmarked) [Example 80, 2,2-dimethyl-3-phenyl-3-(1-(pyridin-2-yl)-1H-indazol-5-yl)-N-(1,3,4-thiadiazol-2-yl)propanamide], the Ki in assay [1] was 8.1 nM. The EC50 in assay [2] was found to be 127 nM.
In the case of `CC(C)(C(=O)Nc1nccs1)C(c1ccccc1)c1ccc2c(cnn2-c2ccncc2)c1` (centres unmarked) [Example 81, 2,2-dimethyl-3-phenyl-3-(1-(pyridin-4-yl)-1H-indazol-5-yl)-N-(thiazol-2-yl)propanamide], the Ki in assay [1] was determined as 11 nM. The EC50 in assay [2] was found to be 1290 nM.
`CC(C)(C(=O)Nc1nncs1)C(c1ccccc1)c1ccc2c(cnn2-c2ccncc2)c1` (centres unmarked) [Example 82, 2,2-dimethyl-3-phenyl-3-(1-(pyridin-4-yl)-1H-indazol-5-yl)-N-(1,3,4-thiadiazol-2-yl)propanamide]: in assay [1], the Ki was found to be 20 nM. For the same compound, the EC50 in assay [2] stood at 491 nM.
For the compound `COc1ccc(-n2ncc3cc(C(c4ccccc4)C(C)(C)C(=O)Nc4nncs4)ccc32)cc1` (centres unmarked) [Example 83, 3-(1-(4-methoxyphenyl)-1H-indazol-5-yl)-2,2-dimethyl-3-phenyl-N-(1,3,4-thiadiazol-2-yl)propanamide], the Ki in assay [1] turned out to be 8.8 nM. In addition, the EC50 in assay [2] is 230 nM.
Consider `CC(C)(C(=O)Nc1nncs1)C(c1ccccc1)c1ccc2c(cnn2-c2ccc(O)cc2)c1` (centres unmarked) [Example 84, 3-(1-(4-hydroxyphenyl)-1H-indazol-5-yl)-2,2-dimethyl-3-phenyl-N-(1,3,4-thiadiazol-2-yl)propanamide], for which the Ki in assay [1] was 7.2 nM. Further, the EC50 in assay [2] came out at 306 nM.

Source of the values: patent publication US8067447B2, “Modulators of glucocorticoid receptor, AP-1, and/or NF-κB activity and use thereof” (Bristol-Myers Squibb Company, priority 2006, dated 2011).
